Patent publication US8975246B2, “Bile acid or bile salt fatty acid conjugates” (Galmed Research and Development Ltd., priority 2001, dated 2015)

System: Inbred C57J/L mice
Assay: Liver lipid/protein ratio, mice on high fat lithogenic diet
Type: in vivo
Details: BAFAC 150 mg/Kg daily by gavage, 5 weeks
Method: Inbred C57J/L mice, 4 weeks old and weighing approx. 20 gm (Jackson Lab. Maine, USA) were used. They were fed for 5 weeks a high fat lithogenic diet consisting of: Cholesterol 1%, Cholic Acid 0.5%, lard 10%, butter 6%, palmitic acid 1.2% and corn oil 2% added (w/w) to their regular diet. In addition to the diet the animals were given daily, by gavage, either a BAFAC (150 mg/Kg) suspended in saline or an equal volume of saline only. The BAFACs were conjugates of cholic acid (at position 3) with either Palmitic Acid (C-16) or Arachidic Acid (C-20) or Behenic Acid (C-22) using an amide bond. The controls (n=5) received saline, the test animals received either the C-16 conjugate (n=5), the C-20 conjugate (n=5) or the C-22 conjugate (n=3). After 5 weeks, following an overnight fast, the animals were anesthetized using ketamine, the liver was removed, and the animals were sacrificed by ketamine overdose. A 0.5 gm sample of liver was homogenized in 5 ml of buffered saline. Liver lipids were extracted from the homogenate by the Folch method using chloroform:methanol (2:1, vol/vol). Half a ml of the homogenate were extracted in 5 ml of the Folch solution. After evaporation of the solvent the lipids were weighed and reevaporated several times until constant weight was obtained. The proteins were quantified in another aliquot of the homogenate according to the method of Bradford. (Bradford M. M., Annal Biochem. 1976, 72:248).
The lipid protein ratio (mg/mg) was calculated. The results for each group are given as means (+St. Dev.) The group values were: […]

Compound	lipid protein ratio in liver, mean (+St. Dev.) [mg/mg]
CCCCCCCCCCCCCCCC(=O)NC1CCC2(C)C(C1)CC(O)C1C2CC(O)C2(C)C(C(C)CCC(=O)O)CCC12 (centres unmarked) [C-16 BAFAC]	2.25 ± 1.20
CCCCCCCCCCCCCCCCCCCCCC(=O)NC1CCC2(C)C(C1)CC(O)C1C2CC(O)C2(C)C(C(C)CCC(=O)O)CCC12 (centres unmarked) [C-22 BAFAC]	3.00 ± 1.08
